# Measurements taken from the supplement of paper PMC11208160.
# Test: recombinant barcode read abundance after kanamycin selection (control-corrected) (log10(CPM+1)); higher = more efficient recombination; sequences stand for … in AGTGCAGAGAAAATCGGCCAGTTTTCTCTGCCTGCAGTCCGCATGCCGT…AGATTTATGCAGCGGACTGCCTTTCTCCCAAAGTGATAAACCGGACAGTATCATGGACCGGTTTTCCCGGTAATCCGTATTTGCAAGGTTGGTTTCACT; site = the 11-nt target
# Method in brief: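 Two replicates per condition were plated: chloramphenicol/ampicillin LB agar for the control, and chloramphenicol/ampicillin/kanamycin with 0.1 mM IPTG for selection. The pooled E. coli screen behind them paired targets with IS621 bridge RNA target-binding loops. Recombination efficiency is expressed from averaged, control-corrected barcode counts per million at recombinant junctions, as log10(CPM+1).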
# 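Further: IS621 recombinase and bridge RNA in Escherichia coli cells.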
row,Sequence,recombinant barcode read abundance (log10)
1,TATTGGACTTGGGTTCTAACCTGTTGCAG (site TATTGGACTAT),0.264
2,TATTGGACTTGGGTTCTAACCTGTTGCAG (site TATTGGACTCT),1.05
3,TATTGGACTTGGGTTCTAACCTGTTGCAG (site TATTGGACTGT),0.0393
4,TATTGGACTTGGGTTCTAACCTGTTGCAG (site TATTGGACTTT),0.14
5,TATTTAGCTTGGGTTCTAACCTGTTGCGG (site ACCAACACTAA),0.0937
6,TATTTAGCTTGGGTTCTAACCTGTTGCGG (site TATTTAGCTCC),0.835
7,TATTTGCCTTGGGTTCTAACCTGTTGCCT (site TAATTGCCTAG),0.0398
8,TATTTGCCTTGGGTTCTAACCTGTTGCCT (site TACTTGCCTAG),0
9,TATTTGCCTTGGGTTCTAACCTGTTGCCT (site TAGTTGCCTAG),0.408
10,TATTTGCCTTGGGTTCTAACCTGTTGCCT (site TATTTGCCTAG),0
11,TCAATAGCTTGGGTTCTAACCTGTTGCAC (site AAGCCGCCTAA),0.204
12,TCAATAGCTTGGGTTCTAACCTGTTGCAC (site TCAATAGCTGT),1.28
13,TCACACTCTTGGGTTCTAACCTGTTGCCT (site TCACACTCTAG),1.59
14,TCACACTCTTGGGTTCTAACCTGTTGCCT (site TCCCACTCTAG),0.111
15,TCACACTCTTGGGTTCTAACCTGTTGCCT (site TCGCACTCTAG),0.101
16,TCACACTCTTGGGTTCTAACCTGTTGCCT (site TCTCACTCTAG),0.114
17,TCACCACCTTGGGTTCTAACCTGTTGCCT (site GAACCACCTAG),0.028
18,TCACCACCTTGGGTTCTAACCTGTTGCCT (site TCACCACCTAG),0.744
19,TCACCTTCTTGGGTTCTAACCTGTTGCCT (site TCACCTTCTAG),0.274
20,TCACCTTCTTGGGTTCTAACCTGTTGCCT (site TCACTTCCTAG),0.0695
21,TCACGTCCTTGGGTTCTAACCTGTTGCAG (site TCACGTCCTCT),0.829
22,TCACGTCCTTGGGTTCTAACCTGTTGCAG (site TCGCGTCCTCT),0.183

row,Sequence,recombinant barcode read abundance (log10)
1,TCAGCATCTTGGGTTCTAACCTGTTGCCT (site TCAGAATCTAG),0.0342
2,TCAGCATCTTGGGTTCTAACCTGTTGCCT (site TCAGCATCTAG),0.457
3,TCAGCATCTTGGGTTCTAACCTGTTGCCT (site TCAGGATCTAG),0.0504
4,TCAGCATCTTGGGTTCTAACCTGTTGCCT (site TCAGTATCTAG),0.0947
5,TCAGGATCTTGGGTTCTAACCTGTTGCCT (site TCAGAATCTAG),0.201
6,TCAGGATCTTGGGTTCTAACCTGTTGCCT (site TCAGCATCTAG),0.0751
7,TCAGGATCTTGGGTTCTAACCTGTTGCCT (site TCAGGATCTAG),0.679
8,TCAGGATCTTGGGTTCTAACCTGTTGCCT (site TCAGTATCTAG),0.291
9,TCATATACTTGGGTTCTAACCTGTTGCCT (site ACATTTACTAG),0.238
10,TCATATACTTGGGTTCTAACCTGTTGCCT (site TCATATACTAG),0.553
11,TCATATCCTTGGGTTCTAACCTGTTGCCT (site CTCCGAACTCT),0.00468
12,TCATATCCTTGGGTTCTAACCTGTTGCCT (site TCATATCCTAG),0.167
13,TCATCCGCTTGGGTTCTAACCTGTTGCCT (site CCATCCACTAG),0.12
14,TCATCCGCTTGGGTTCTAACCTGTTGCCT (site TCATCCGCTAG),1.05
15,TCCAAACCTTGGGTTCTAACCTGTTGCAG (site TCCAAACCTCT),0.898
16,TCCAAACCTTGGGTTCTAACCTGTTGCAG (site TCCAACCCTCT),0.0235
17,TCCAAACCTTGGGTTCTAACCTGTTGCAG (site TCCAAGCCTCT),0.151
18,TCCAAACCTTGGGTTCTAACCTGTTGCAG (site TCCAATCCTCT),0.0156
19,TCCAGTCCTTGGGTTCTAACCTGTTGCTG (site AGCAGTCCTCA),0.0888
20,TCCAGTCCTTGGGTTCTAACCTGTTGCTG (site TCCAGTCCTCA),0.285
21,TCCCAAGCTTGGGTTCTAACCTGTTGCTA (site TCCAAAGCTTA),0.589
22,TCCCAAGCTTGGGTTCTAACCTGTTGCTA (site TCCCAAGCTTA),1.32

row,Sequence,recombinant barcode read abundance (log10)
1,TCCCAAGCTTGGGTTCTAACCTGTTGCTA (site TCCGAAGCTTA),0.0505
2,TCCCAAGCTTGGGTTCTAACCTGTTGCTA (site TCCTAAGCTTA),0.141
3,TCCCGACCTTGGGTTCTAACCTGTTGCCT (site TCCCGAACTAG),0.135
4,TCCCGACCTTGGGTTCTAACCTGTTGCCT (site TCCCGACCTAG),1.72
5,TCCCGACCTTGGGTTCTAACCTGTTGCCT (site TCCCGAGCTAG),0.107
6,TCCCGACCTTGGGTTCTAACCTGTTGCCT (site TCCCGATCTAG),0.0793
7,TCCCGCCCTTGGGTTCTAACCTGTTGCCT (site GCACGCCCTAG),0.0125
8,TCCCGCCCTTGGGTTCTAACCTGTTGCCT (site TCCCGCCCTAG),0.464
9,TCCCGGACTTGGGTTCTAACCTGTTGCCT (site TCACGGACTAG),0.212
10,TCCCGGACTTGGGTTCTAACCTGTTGCCT (site TCCCGGACTAG),0.892
11,TCCCGGACTTGGGTTCTAACCTGTTGCCT (site TCGCGGACTAG),0
12,TCCCGGACTTGGGTTCTAACCTGTTGCCT (site TCTCGGACTAG),0.1
13,TCCGAAGCTTGGGTTCTAACCTGTTGCTA (site TCCAAAGCTTA),0.0181
14,TCCGAAGCTTGGGTTCTAACCTGTTGCTA (site TCCCAAGCTTA),0.264
15,TCCGAAGCTTGGGTTCTAACCTGTTGCTA (site TCCGAAGCTTA),0.29
16,TCCGAAGCTTGGGTTCTAACCTGTTGCTA (site TCCTAAGCTTA),0.0103
17,TCCGAGACTTGGGTTCTAACCTGTTGCCT (site TCCGAGACTAG),1.4
18,TCCGAGACTTGGGTTCTAACCTGTTGCCT (site TCCGAGACTCG),0.048
19,TCCGAGACTTGGGTTCTAACCTGTTGCCT (site TCCGAGACTGG),0.267
20,TCCGAGACTTGGGTTCTAACCTGTTGCCT (site TCCGAGACTTG),0.157
21,TCCGGAGCTTGGGTTCTAACCTGTTGCCG (site GTGAACCCTTT),0.0406
22,TCCGGAGCTTGGGTTCTAACCTGTTGCCG (site TCCGGAGCTCG),0.652

row,Sequence,recombinant barcode read abundance (log10)
1,TCCGGTTCTTGGGTTCTAACCTGTTGCCT (site ACGGGTTCTAG),0.0897
2,TCCGGTTCTTGGGTTCTAACCTGTTGCCT (site TCCGGTTCTAG),0.965
3,TCCGTGGCTTGGGTTCTAACCTGTTGCCT (site TCCGTGACTAG),0.121
4,TCCGTGGCTTGGGTTCTAACCTGTTGCCT (site TCCGTGCCTAG),0.261
5,TCCGTGGCTTGGGTTCTAACCTGTTGCCT (site TCCGTGGCTAG),0.916
6,TCCGTGGCTTGGGTTCTAACCTGTTGCCT (site TCCGTGTCTAG),0.244
7,TCCGTGTCTTGGGTTCTAACCTGTTGCCT (site TCCGTGACTAG),0.0308
8,TCCGTGTCTTGGGTTCTAACCTGTTGCCT (site TCCGTGCCTAG),0.241
9,TCCGTGTCTTGGGTTCTAACCTGTTGCCT (site TCCGTGGCTAG),0.0597
10,TCCGTGTCTTGGGTTCTAACCTGTTGCCT (site TCCGTGTCTAG),2.24
11,TCCTAGTCTTGGGTTCTAACCTGTTGCAG (site GGTCCTCCTTC),0.0984
12,TCCTAGTCTTGGGTTCTAACCTGTTGCAG (site TCCTAGTCTCT),0.392
13,TCCTATCCTTGGGTTCTAACCTGTTGCGT (site TCCCATCCTAC),0.9
14,TCCTATCCTTGGGTTCTAACCTGTTGCGT (site TCCTATCCTAC),0.623
15,TCCTGAGCTTGGGTTCTAACCTGTTGCTG (site TCCTGAGCTCA),0.405
16,TCCTGAGCTTGGGTTCTAACCTGTTGCTG (site TCCTTAGCTCG),0.0103
17,TCCTTCACTTGGGTTCTAACCTGTTGCCT (site TCCTTCACTAG),0.285
18,TCCTTCACTTGGGTTCTAACCTGTTGCCT (site TCGTTCGCTAG),0.0665
19,TCGAACTCTTGGGTTCTAACCTGTTGCTT (site TCGAACTCTAA),0.339
20,TCGAACTCTTGGGTTCTAACCTGTTGCTT (site TCGCGCTCTAA),0.0841
